Source: patent publication EP0230274A2, “Derivatives of 7-(azabicycloalkyl)-quinoloncarboxylic acid and -naphthyridoncarboxylic acid” (BAYER AG, priority 1986, dated 1987)
Converted amounts (≈) assume the structure as drawn. Counter-ions that a name gives are not always drawn. Like-named read-outs stand apart in the source and are kept apart here.

Tests used:
Test in all cases: Agar dilution test (Isosensitest agar), MIC
Format in all cases: cell-based
E.coli 455/7 = conditions: Escherichia coli; strain E.coli 455/7; Agardilutionstest/Isosensitestagar; read-out: MHK
Providenicia 12052 = conditions: read-out: MHK
Description: (§1) In der nachstehenden Tabelle sind einige MHK-Werte im Vergleich zu 1-Cyclopropyl-6-fluor-1,4-dihydro-4-oxo-7-(1-piperazinyl)-3-chinolincarbonsäure (Ciprofloxacin) angegeben: […]

Staph. aur. 133 = conditions: strain Staph. aur. 133; Agardilutionstest/Isosensitestagar; read-out: MHK
Description: as §1

Staph. aur. 1756 = conditions: strain Staph. aur. 1756; Agardilutionstest/Isosensitestagar; read-out: MHK
Description: as §1

Staph. aur. FK 422 = conditions: strain Staph. aur. FK 422; Agardilutionstest/Isosensitestagar; read-out: MHK
Description: as §1

Streptoc. faecal. 27101 = conditions: strain Streptoc. faecal. 27101; Agardilutionstest/Isosensitestagar; read-out: MHK
Description: as §1

Streptoc. faecal. 9790 = conditions: strain Streptoc. faecal. 9790; Agardilutionstest/Isosensitestagar; read-out: MHK
Description: as §1

Pseudomonas aerug. W. = conditions: strain Pseudomonas aerug. W.; Agardilutionstest/Isosensitestagar; read-out: MHK
[1] = strain Providenicia 12052, Agardilutionstest/Isosensitestagar

| SMILES | MIC (E.coli 455/7) | MIC (Providenicia 12052; [1]) | MIC (Staph. aur. 133) | MIC (Staph. aur. 1756) | MIC (Staph. aur. FK 422) | MIC (Streptoc. faecal. 27101) | MIC (Streptoc. faecal. 9790) | MIC (Pseudomonas aerug. W.) | MIC (Providenicia 12052) |
| --- | --- | --- | --- | --- | --- | --- | --- | --- | --- |
| O=C(O)c1cn(C2CC2)c2cc(N3CCNCC3)c(F)cc2c1=O [Ciprofloxacin, 1-Cyclopropyl-6-fluor-1,4-dihydro-4-oxo-7-(1-piperazinyl)-3-chinolincarbonsäure, reference compound] | 2 µg/mL (≈ 6.04 µM) | 32 µg/mL (≈ 96.6 µM) | 0.5 µg/mL (≈ 1.51 µM) | 0.5 µg/mL (≈ 1.51 µM) | 0.5 µg/mL (≈ 1.51 µM) | 0.5 µg/mL (≈ 1.51 µM) | 0.25 µg/mL (≈ 0.754 µM) | 0.5 µg/mL (≈ 1.51 µM) | – |
| CN1C2CCC1CN(c1cc3c(cc1F)c(=O)c(C(=O)O)cn3C1CC1)C2 [Beispiel 12, 1-Cyclopropyl-6-fluor-1,4-dihydro-7-(8-methyl-3,8-diazabi-cyclo[3.2.1]oct-3-yl)-4-oxo-3-chinolincarbonsäure] | 4 µg/mL (≈ 10.8 µM) | – | – | – | – | – | – | 0.5 µg/mL (≈ 1.35 µM) | 16 µg/mL (≈ 43.1 µM) |
| O=C(O)c1cn(C2CC2)c2cc(N3CCN4CCC3C4)c(F)cc2c1=O (stereo not drawn) [Beispiel 1, 1-Cyclopropyl-7-(1,4-diazabicyclo[3.2.1]oct-4-yl)-6-fluor-1,4-dihydro-4-oxo-3-chinolincarbonsäureHydrochlorid] | 2 µg/mL | – | – | 0.25 µg/mL | 0.25 µg/mL | 0.25 µg/mL | 0.25 µg/mL | 0.5 µg/mL | – |

Further lines, with some results ahead:

| MIC (E.coli 455/7) | MIC (Providenicia 12052; [1]) | MIC (Staph. aur. 133) | MIC (Staph. aur. 1756) | MIC (Staph. aur. FK 422) | MIC (Streptoc. faecal. 27101) | MIC (Streptoc. faecal. 9790) | SMILES | MIC (Pseudomonas aerug. W.) | MIC (Providenicia 12052) |
| --- | --- | --- | --- | --- | --- | --- | --- | --- | --- |
| 0.5 µg/mL (≈ 1.33 µM) | 8 µg/mL (≈ 21.3 µM) | 0.06 µg/mL (≈ 0.16 µM) | 0.06 µg/mL (≈ 0.16 µM) | – | – | 0.25 µg/mL (≈ 0.666 µM) | O=C(O)c1cn(C2CC2)c2c(F)c(N3CCN4CCC3C4)c(F)cc2c1=O (stereo not drawn) [Beispiel 4, 1-Cyclopropyl-7-(1,4-diazabicyclo[3.2.1]oct-4-yl)-6,8-difluor-1,4-dihydro-4-oxo-3-chinolincarbonsäure] | 0.5 µg/mL (≈ 1.33 µM) | – |
| 0.5 µg/mL | 8 µg/mL | 0.06 µg/mL | 0.06 µg/mL | 0.06 µg/mL | 0.06 µg/mL | 0.06 µg/mL | O=C(O)c1cn(C2CC2)c2c(Cl)c(N3CCN4CCC3C4)c(F)cc2c1=O (stereo not drawn) [Beispiel 3, 8-Chlor-1-cyclopropyl-7-(1,4-diazabicyclo[3.2.1]ocl-4-yl)-6-fluor-1,4-dihydro-4-oxo-3-chinolincarbonäure-Hydrochlorid-Hydrat] | – | – |
